Like-named read-outs stand apart in the source and are kept apart here. Marks after values point to notes of the source that are not given here.
Tests used:
[1] = Midostaurin PK when administered with rifampicin; settings: for decrease in exposure (AUClast) in midostaurin + rifampicin arm: compared with midostaurin alone; for AUC(0-t) / Cmax / half-life / Tmax: human, oral; for AUC(0-t) / Cmax / half-life / Tmax / AUC0–inf, adjusted geometric mean / AUC0–last, adjusted geometric mean / C max, adjusted geometric mean / t 1/2, adjusted geometric mean / t max, median: plasma, n = 20; for AUC(0-t): AUC0–last; for AUC(0-t) / Cmax: adjusted geometric mean; for Cmax: C max; for half-life: t 1/2, adjusted geometric mean; for Tmax: t max, median
Method: These endogenous molecules served as exploratory biomarkers for CYP3A4 activity in vivo [21, 22].
A point estimate and the corresponding 90 % CI for the treatment effect (test vs reference) were calculated. These were anti-logged to obtain the GMR and respective 90 % CI. […] The median difference was estimated with the Hodges–Lehmann estimator and its respective exact two-sided 90 % CI. All formal comparative statistical analyses were performed using SAS software.
(§1) The concentration of ketoconazole in plasma was assessed using a validated LC–MS/MS assay with an LLOQ of 50.0 ng/mL (WuXi Pharmatech Co, Ltd, China). The concentration of rifampicin in plasma was measured using a validated LC–MS/MS assay with an LLOQ of 5.0 ng/mL (SGS, Cephac Europe, SAS). Plasma concentrations of midazolam and its metabolite 1′-hydroxymidazolam, which is generated by CYP3A4 and CYP3A5 in humans, were measured using a validated LC–MS/MS assay with an LLOQ of ≈0.100 ng/mL (SGS, Cephac Europe, SAS). The plasma concentration of 4β-hydroxycholesterol was measured using a validated LC–MS/MS assay with an LLOQ of 3.0 ng/mL (SGS, Cephac Europe, SAS). The concentrations of 6β-hydroxycortisol and cortisol in urine were determined using validated LC–MS/MS assays with an LLOQ of 10.0 ng/mL for 6β-hydroxycortisol and 1.0 ng/mL for cortisol. The ratio of 6β-hydroxycortisol to cortisol was subsequently calculated (SGS, Cephac Europe, SAS). See Supplementary Table 2 for detailed bioanalytical methods for all 3 studies.

CYP3A4/5 = settings: in vitro; read-out: IC50, CYP3A4/5 activity (midazolam 1′-hydroxylation); cited from earlier work
[2] = cited from earlier work
mutant FLT3 = settings: in vitro; read-out: half-maximal inhibitory concentration (IC50), mutant FLT3; cited from earlier work
[3] = system: human serum protein α1-acid glycoprotein (AAG); parameters: method as in PMID 11230495; settings: cited from earlier work
[4] = Midostaurin PK when administered with ketoconazole; settings: for Cmax / Tmax: human, oral; for Cmax: C max, adjusted geometric mean; for Tmax: t max, median; for t max, Hodges–Lehmann estimate of median difference (90 % distribution-free CI): ketoconazole + midostaurin vs placebo + midostaurin
Method: According to the US Food and Drug Administration, ketoconazole 400 mg once daily is the recommended dose to evaluate DDIs involving CYP3A4 inhibition. [drawing 1]
Adverse events (AEs) were recorded during the study and up to 1 month (28 days) after the end of study. Volunteers remained at the clinic until AEs were common toxicity criteria (CTC) grade ≤1.
A point estimate and the corresponding 90 % CI for the treatment effect were calculated for the test treatment compared with the reference. These were anti-logged to obtain the point estimate and the 90 % CI for the geometric mean ratio (GMR) on the untransformed scale. […] All ANOVAs were performed using SAS software (SAS Institute Inc., Cary, NC, USA).
as §1

[5] = Placebo + midostaurin arm, rifampicin study
[6] = plasma, plasma, Ketoconazole + midostaurin arm, n = 18
[7] = plasma, plasma, Placebo + midostaurin arm, ketoconazole study, n = 18
[8] = plasma, Ketoconazole + midostaurin arm, n = 18
[9] = plasma, Placebo + midostaurin arm, ketoconazole study, n = 18

CO[C@@H]1[C@H](N(C)C(=O)c2ccccc2)C[C@H]2O[C@]1(C)n1c3ccccc3c3c4c(c5c6ccccc6n2c5c31)C(=O)NC4O (mixture of isomers) [CGP52421]
decrease in exposure (AUClast) in midostaurin + rifampicin arm [1]: 2.45 fold | AUC(0-t) [1, 5]: 14600 ng·h/mL | AUC(0-t) ([1]; Rifampicin + midostaurin arm): 5960 ng·h/mL | Cmax [1, 5]: 196 ng/mL | Cmax ([1]; Rifampicin + midostaurin arm): 128 ng/mL | half-life [1, 5]: 175 h | half-life ([1]; Rifampicin + midostaurin arm): 87.1 h | Tmax [1, 5]: 3 h | Tmax ([1]; Rifampicin + midostaurin arm): 2.51 h | median t max prolonged in midostaurin + placebo arm compared with midostaurin + rifampicin arm ([1]; in vivo): 1.2 fold | IC50 (CYP3A4/5): 1500 nM | apparent elimination half-life (t 1/2) [2]: 384 to 744 h | half-life [2]: > 1 month | major pathway for elimination [2]: Fecal excretion | IC50 (mutant FLT3): 584 nM | bound to AAG [3]: 88–98% | Cmax [4, 6]: 70.9 ng/mL | Cmax [4, 7]: 145 ng/mL | Tmax [4, 6]: 120 h | Tmax [4, 7]: 2 h | t max, Hodges–Lehmann estimate of median difference (90 % distribution-free CI) [4]: 116.7 (93.9, 117.9) h

CN(C(=O)c1ccccc1)[C@@H]1C[C@H]2O[C@@](C)([C@@H]1O)n1c3ccccc3c3c4c(c5c6ccccc6n2c5c31)C(=O)NC4 [CGP62221]
decrease in exposure (AUClast) in midostaurin + rifampicin arm [1]: 13.0 fold | AUC0–inf, adjusted geometric mean ([1]; Placebo + midostaurin arm (midostaurin 50 mg once), rifampicin study): 35,146.80 ng h/mL | AUC0–last, adjusted geometric mean [1, 5]: 32,266.80 ng h/mL | C max, adjusted geometric mean [1, 5]: 631.46 ng/mL | t 1/2, adjusted geometric mean [1, 5]: 33.74 h | t max, median [1, 5]: 3.00 h | AUC0–inf, adjusted geometric mean ([1]; Rifampicin + midostaurin arm (midostaurin 50 mg once, rifampicin 600 mg daily)): 2,699.43 ng h/mL | AUC0–last, adjusted geometric mean ([1]; Rifampicin + midostaurin arm): 2,501.48 ng h/mL | C max, adjusted geometric mean ([1]; Rifampicin + midostaurin arm): 396.25 ng/mL | t 1/2, adjusted geometric mean ([1]; Rifampicin + midostaurin arm): 7.02 h | t max, median ([1]; Rifampicin + midostaurin arm): 1.50 h | IC50 (CYP3A4/5): < 1000 nM | major pathway for elimination [2]: Fecal excretion | IC50 (mutant FLT3): 26 nM | bound to AAG [3]: 88–98% | elimination t 1/2 in the presence of ketoconazole ([4]; compared with placebo): prolonged | t max, Hodges–Lehmann estimate of median difference (90 % distribution-free CI) [4]: 114.0 (92.8, 116.0) h | AUC0–inf, adjusted geometric mean ([4]; plasma, Ketoconazole + midostaurin arm (midostaurin 50 mg once, ketoconazole 400 mg daily), n = 18): 110,234.87 ng h/mL | AUC0–last, adjusted geometric mean [4, 8]: 27,237.87 ng h/mL | C max, adjusted geometric mean [4, 8]: 329.76 ng/mL | t 1/2, adjusted geometric mean ([4]; plasma, Ketoconazole + midostaurin arm, for 4 volunteers only (flat terminal phase in others)): 142.01^b h | AUC0–inf, adjusted geometric mean ([4]; plasma, Placebo + midostaurin arm (midostaurin 50 mg once), ketoconazole study, n = 18): 31,366.63 ng h/mL | AUC0–last, adjusted geometric mean [4, 9]: 27,414.44 ng h/mL | C max, adjusted geometric mean [4, 9]: 586.78 ng/mL | t 1/2, adjusted geometric mean [4, 9]: 36.60 h | t max, median [4, 9]: 3.51 h
